# Assay results reported in patent publication US20260357266A1, “COMPOSITION FOR KILLING A THERAPY-INDUCED SENESCENCE (TIS) CELLS AND USES THEREOF” (AJOU UNIVERSITY INDUSTRY-ACADEMIC COOPERATION FOUNDATION, priority 2022, published 2026).
# Experiments:
# [1] = tested on: MCF7 control cells and TIS cells; test: CCK8 assay and microscopy, senolytic effect on control and therapy-induced senescent (TIS) MCF7 cells; type: cell-based; settings: for cell viability, TIS group compared to control group: CCK8, MCF7, FIG. 3b
# Method: FIGS. 3d and 3e show the results of CCK8 assay and microscopy performed to evaluate the cell killing effect of SGI-1776 after treating MCF7 cells (Ctrl and TIS) with another PIM1 kinase inhibitor, SGI-1776 (Selleckhem, Catalog No. S2198, CAS 1025065-69-3).
# Therapy-induced senescent breast cancer cells were treated with the FDA-approved inhibitors (Table 1) for the 23 genes finally selected in Example 2, the senescent cell-selective cell division inhibitory effect and senolytic effect of the drugs were evaluated by CCK8 assay (D-Plus CCK, cell viability assay kit, Cat CCK-3000, Dong-In LS) (FIG. 3A). In this case, for the control group (cancer cells without therapy-induced senescence), the measurement was made after treatment with the inhibitor at the indicated concentration for 48 hours, and for the therapy-induced senescent cell group, the cancer cells were induced to senescence by treatment with adriamycin for 48 hours as described in Example 1, and then treated with the indicator at the indicated concentration for 48 hours while replacing the culture medium, the inhibitor was treated at the indicated concentration for 48 hours, and then the measurement was made.
# [2] = tested on: senescent cell types, including senescent cancer cells; settings: literature (Aging Cell 15, 428-435 (2016); Nat. Med. 22, 78-83 (2016)); cited from earlier work
# [3] = tested on: various cancer cell lines (MCF7, MDA-MB 231, MKN1, HSC4, and SNU869); test: Therapy-induced senescence by cisplatin in various cancer cell lines; type: cell-based; settings: 10 μM cisplatin; MCF7, MDA-MB 231, MKN1, HSC4, SNU869
# Method: (§1) In addition, in order to examine whether therapy-induced senescence (TIS) occurs even when using anticancer agents other than adriamycin, various cancer cell lines (MCF7, MDA-MB 231, MKN1, HSC4, and SNU869) were treated with 10 μM of cisplatin (Selleckhem, Catalog No. S1166 CAS 15663-27-1).
# PIM-1 kinase = PIM-1 kinase mRNA/protein expression after therapy-induced senescence; type: cell-based; settings: 10 μM cisplatin; MCF7, MDA-MB 231, MKN1, HSC4, SNU869
# Text: In addition to breast cancer cell lines (MCF7 and MDA-MB231), gastric cancer (SNU601, MKN1, and MKN74), colon cancer (SW480, and Hct116), head and neck cancer (HSC4), cervical cancer (HeLa S3), cholangiocarcinoma (SNU308, SNU478, and SNU1196), pancreatic adenocarcinoma (BxPC3), and prostate cancer (PC3) cell lines were induced to senescence by treatment in the same manner as in Example 1, thereby obtaining therapy-induced senescent cells.
# as §1
# [4] = tested on: SNU601, HSC4, and SW480 cells (control and TIS); test: CCK8 assay and microscopy, senolytic effect on control and TIS gastric, head and neck and colon cancer cells; type: cell-based; settings: FIG. 5
# Method: FIGS. 5a and 5b show the results of microscopy and CCK8 assay performed to evaluate the cell killing effect of PIM 1/2 inhibitor VI on control (Ctrl) cells and therapy-induced senescent (TIS) cells after treating cancer cell lines (HSC4: head and neck cancer, SNU601: gastric cancer, and SW480: colon cancer) with PIM 1/2 inhibitor VI.
# Therapy-induced senescent breast cancer cells were treated with the FDA-approved inhibitors (Table 1) for the 23 genes finally selected in Example 2, the senescent cell-selective cell division inhibitory effect and senolytic effect of the drugs were evaluated by CCK8 assay (D-Plus CCK, cell viability assay kit, Cat CCK-3000, Dong-In LS) (FIG. 3A). […]
# In order to evaluate the senolytic effect of a Pim-1 kinase inhibitor on gastric cancer (SNU601), head and neck cancer (HSC4), and colon cancer (SW480) cell lines induced to senescence by treatment, the concentration-dependent senolytic effect of the Pim-1 kinase inhibitor was evaluated in the same manner as described in Example 3.
# [5] = tested on: breast cancer cell lines (MCF7, ZR75-1, Hs578T, and MDA-MB-231); test: Cell size and SA-β-gal staining after therapy-induced senescence by adriamycin; type: cell-based; settings: 100 nM adriamycin for 48 h, then medium replaced and cultured 5 to 7 days
# Method: (§2) To generate therapy-induced senescent tumor cells, breast cancer cell lines with contrasting characteristics (MCF7 and ZR75-1, which are female hormone receptor-positive but relatively less malignant, and Hs578T and MDA-MB-231, which are hormone receptor- and HER2 receptor-negative triple-negative breast cancer cell lines and are relatively more aggressive) were each treated with 100 nM of adriamycin (Selleckhem, Catalog No. S1208, CAS 25316-40-9). After 48 hours, the cell culture medium was replaced and the cells were cultured for 5 to 7 days, thereby generating therapy-induced senescent tumor cells.
# p21 = p21 mRNA expression after therapy-induced senescence by adriamycin; type: cell-based; settings: 100 nM adriamycin for 48 h, then medium replaced and cultured 5 to 7 days; MCF7, ZR75-1, Hs578T, MDA-MB-231
# Method: as §2
compound,measurement,setting,value
CC1(C)CCC(c2ccc(Cl)cc2)=C(CN2CCN(c3ccc(C(=O)NS(=O)(=O)c4ccc(N[C@H](CCN5CCOCC5)CSc5ccccc5)c(S(=O)(=O)C(F)(F)F)c4)cc3)CC2)C1 [ABT-263],"cell viability, TIS group compared to control group",[1],significantly inhibited in a therapy-induced senescent cell group compared to a control group
same,killing effect on both control and TIS cells,[1]; FIGS. 3B and 3C,almost complete killing effect on both the control and TIS cells
same,"killing effect, control vs TIS cells","[1]; FIGS. 3B and 3C, difference between control and TIS cells",significant difference between the killing effect on the control cell and the killing effect on the TIS cells
same,elimination of senescent cell types,[2],"able to effectively eliminate a wide range of senescent cell types, including senescent cancer cells"
CN1CCC(CNc2ccc3ncc(-c4cccc(OC(F)(F)F)c4)n3n2)CC1 [SGI-1776],cytotoxicity to TIS cells compared to control cells,"[1]; FIG. 3D, MCF7",high cytotoxicity to the TIS cells compared to the control cells
N.N.[Cl][Pt][Cl] [cisplatin],occurrence of therapy-induced senescence (TIS),[3],therapy-induced senescence (TIS) occurred
same,mRNA expression of the PIM-1 kinase gene,PIM-1 kinase,significantly increased
CCCOc1ccc(/C=C2\SC(=O)NC2=O)cc1 [PIM1/2 kinase inhibitor VI],"cell viability, TIS group compared to control group",[1],significantly inhibited in a therapy-induced senescent cell group compared to a control group
same,selective senolytic effect on therapy-induced senescent tumor cells,"[1]; CCK8, inhibitor 48 h, TIS by adriamycin vs control, FIG. 3A",exhibited a selective senolytic effect on the therapy-induced senescent tumor cells
same,killing effect on TIS cells,"[1]; FIGS. 3B and 3C, TIS cells",effectively killed the TIS cells
same,cell growth and killing of control cells,"[1]; FIGS. 3B and 3C, control cells, high concentrations",inhibited cell growth in the control cells at high concentrations but hardly killed the control cells
same,senolytic effect on senescent cells compared with ABT-263,"[1]; FIGS. 3B and 3C, versus ABT-263",significantly superior to that of ABT-263
same,killing effect on therapy-induced senescent tumor cells compared to normal tumor cells,"[1]; summary statement, tumor cells induced to senescence by a chemotherapeutic agent",a significant killing effect was observed on the therapy-induced senescent tumor cells compared to normal tumor cells
same,killing effect on therapy-induced senescent cancer cells,"[4]; SNU601, HSC4, SW480 TIS cells",significant killing effect on the therapy-induced senescent cancer cells
same,killing effect on control cells,"[4]; SNU601, HSC4, SW480 control cells",no significant killing effect on the control cells
COc1cccc2c1C(=O)c1c(O)c3c(c(O)c1C2=O)C[C@@](O)(C(=O)CO)C[C@@H]3O[C@H]1C[C@H](N)[C@H](O)[C@H](C)O1 [adriamycin],cell size,[5],the cell size of each breast cancer cell line increased
same,number of cells positive to SA-b-gal,[5],"the number of cells positive to SA-b-gal, a senescence marker, increased"
same,mRNA expression of p21,p21,increase significantly in each cell line
